Data published in patent publication US9738634B2, “Heterocyclic amide compound and herbicide” (SYNGENTA PARTICIPATIONS AG, priority 2013, dated 2017).

How the values were obtained:
Assay type in all cases: in vivo
Details in all cases: treatment dosage 320 g/ha
[1] = test system: barnyard grass; assay: Test Example 2: weedkilling efficacy, growth period weed treatment in the submerged state; A: barnyard grass
How it was run: (§1)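 Barnyard grass, bulrush and oval-leafed pondweed sown in alluvial soil under 4 cm flooding, greenhouse 25 to 30° C. At 1-2 leaf stage, water-diluted emulsion applied to the water surface at stated g/ha dosages; effects scored 3 weeks later.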

[2] = test system: chickweed; assay: Test Example 3: weedkilling efficacy through soil treatment; N: chickweed
How it was run: (§2)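 Crop and weed responses were judged three weeks after a uniform surface spray of the water-diluted emulsion at the given g/ha rate. Seeds sat beneath about 1.5 cm of sterilized diluvial soil, and boxes stood in a greenhouse at 25 to 30° C.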

[3] = test system: oval-leafed pondweed; assay: Test Example 1: weedkilling efficacy, preemergent weed treatment in the submerged state; C: oval-leafed pondweed
How it was run: (§3)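 Pots of alluvial soil flooded 4 cm deep, sown with barnyard grass, bulrush and oval-leafed pondweed and transplanted with 2.5-leaf rice. Emulsified compound applied to the water surface on sowing day at stated g/ha; greenhouse 25–30 °C, effects assessed 3 weeks after treatment.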

[4] = test system: Italian ryegrass; assay: Test Example 3: weedkilling efficacy through soil treatment; I: Italian ryegrass
How it was run: as §2

[5] = test system: black-grass; assay: Test Example 4: weedkilling efficacy by foliar treatment; H: black-grass
How it was run: (§4)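 Seeds are spot-sown into sterilized diluvial soil and covered with about 1.5 cm of soil. After 14 days' greenhouse growth at 25 to 30° C, plants are sprayed on stems and leaves with diluted emulsion at the stated g/ha rate, then scored at 3 weeks.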

[6] = test system: common wind-grass; assay: Test Example 4: weedkilling efficacy by foliar treatment; J: common wind-grass
How it was run: as §4

[7] = test system: wheat; assay: Test Example 3: soil treatment, effect on crop; e: wheat
How it was run: as §2

[8] = test system: beet; assay: Test Example 4: foliar treatment, effect on crop; f: beet
How it was run: as §4

[9] = test system: redroot pigweed; assay: Test Example 4: weedkilling efficacy by foliar treatment; L: redroot pigweed
How it was run: as §4

[10] = test system: oval-leafed pondweed; assay: Test Example 2: weedkilling efficacy, growth period weed treatment in the submerged state; C: oval-leafed pondweed
How it was run: as §1

[11] = test system: Indian mallow; assay: Test Example 3: weedkilling efficacy through soil treatment; K: Indian mallow
How it was run: as §2

[12] = test system: birds-eye speedwell; assay: Test Example 4: weedkilling efficacy by foliar treatment; p: birds-eye speedwell
How it was run: as §4

[13] = test system: birds-eye speedwell; assay: Test Example 3: weedkilling efficacy through soil treatment; p: birds-eye speedwell
How it was run: as §2

[14] = test system: wheat; assay: Test Example 4: foliar treatment, effect on crop; e: wheat
How it was run: as §4

[15] = test system: fig-leafed goosefoot; assay: Test Example 3: weedkilling efficacy through soil treatment; M: fig-leafed goosefoot
How it was run: as §2

[16] = test system: crabgrass; assay: Test Example 4: weedkilling efficacy by foliar treatment; D: crabgrass
How it was run: as §4

[17] = test system: redroot pigweed; assay: Test Example 3: weedkilling efficacy through soil treatment; L: redroot pigweed
How it was run: as §2

[18] = test system: barnyard grass; assay: Test Example 3: weedkilling efficacy through soil treatment; F: barnyard grass
How it was run: as §2

[19] = test system: transplanted rice; assay: Test Example 1: preemergent weed treatment in the submerged state, effect on crop; a: transplanted rice
How it was run: as §3

[20] = test system: fig-leafed goosefoot; assay: Test Example 4: weedkilling efficacy by foliar treatment; M: fig-leafed goosefoot
How it was run: as §4

[21] = test system: wild oat; assay: Test Example 4: weedkilling efficacy by foliar treatment; G: wild oat
How it was run: as §4

[22] = test system: soybean; assay: Test Example 3: soil treatment, effect on crop; d: soybean
How it was run: as §2

[23] = test system: green foxtail; assay: Test Example 4: weedkilling efficacy by foliar treatment; E: green foxtail
How it was run: as §4

[24] = test system: catchweed; assay: Test Example 3: weedkilling efficacy through soil treatment; O: catchweed
How it was run: as §2

[25] = test system: catchweed; assay: Test Example 4: weedkilling efficacy by foliar treatment; O: catchweed
How it was run: as §4

[26] = test system: wild oat; assay: Test Example 3: weedkilling efficacy through soil treatment; G: wild oat
How it was run: as §2

[27] = test system: bulrush; assay: Test Example 1: weedkilling efficacy, preemergent weed treatment in the submerged state; B: bulrush
How it was run: as §3

[28] = test system: directly sown rice; assay: Test Example 4: foliar treatment, effect on crop; b: directly sown rice
How it was run: as §4

[29] = test system: Indian mallow; assay: Test Example 4: weedkilling efficacy by foliar treatment; K: Indian mallow
How it was run: as §4

[30] = test system: black-grass; assay: Test Example 3: weedkilling efficacy through soil treatment; H: black-grass
How it was run: as §2

[31] = test system: soybean; assay: Test Example 4: foliar treatment, effect on crop; d: soybean
How it was run: as §4

[32] = test system: barnyard grass; assay: Test Example 1: weedkilling efficacy, preemergent weed treatment in the submerged state; A: barnyard grass
How it was run: as §3

[33] = test system: Italian ryegrass; assay: Test Example 4: weedkilling efficacy by foliar treatment; I: Italian ryegrass
How it was run: as §4

[34] = test system: crabgrass; assay: Test Example 3: weedkilling efficacy through soil treatment; D: crabgrass
How it was run: as §2

[35] = test system: chickweed; assay: Test Example 4: weedkilling efficacy by foliar treatment; N: chickweed
How it was run: as §4

[36] = test system: directly sown rice; assay: Test Example 3: soil treatment, effect on crop; b: directly sown rice
How it was run: as §2

[37] = test system: beet; assay: Test Example 3: soil treatment, effect on crop; f: beet
How it was run: as §2

[38] = test system: common wind-grass; assay: Test Example 3: weedkilling efficacy through soil treatment; J: common wind-grass
How it was run: as §2

[39] = test system: rapeseed; assay: Test Example 4: foliar treatment, effect on crop; g: rapeseed
How it was run: as §4

[40] = test system: green foxtail; assay: Test Example 3: weedkilling efficacy through soil treatment; E: green foxtail
How it was run: as §2

[41] = test system: barnyard grass; assay: Test Example 4: weedkilling efficacy by foliar treatment; F: barnyard grass
How it was run: as §4

[42] = test system: rapeseed; assay: Test Example 3: soil treatment, effect on crop; g: rapeseed
How it was run: as §2

[43] = test system: corn; assay: Test Example 4: foliar treatment, effect on crop; c: corn
How it was run: as §4

[44] = test system: corn; assay: Test Example 3: soil treatment, effect on crop; c: corn
How it was run: as §2

Structure (SMILES): CC1=C(c2ccccc2)C(=O)N(C(C)(C)C(=O)Nc2ccc3ccccc3n2)CO1 [B-1-18]
- A (barnyard grass) weedkilling efficacy grade [1]: 4 (weed kill ratio 70% or more, less than 90%)
- N (chickweed) weedkilling efficacy grade [2]: 0 (weed kill ratio 5% or less (practically no effect))
- C (oval-leafed pondweed) weedkilling efficacy grade [3]: 5 (weed kill ratio 90% or more, (practically complete withering))
- I (Italian ryegrass) weedkilling efficacy grade [4]: 2 (weed kill ratio 20% or more, less than 40%)
- H (black-grass) weedkilling efficacy grade [5]: 1 (weed kill ratio 5% or more, less than 20%)
- J (common wind-grass) weedkilling efficacy grade [6]: 3 (weed kill ratio 40% or more, less than 70%)
- e (wheat) effect on crop grade [7]: 0 (weed kill ratio 5% or less (practically no effect))
- f (beet) effect on crop grade [8]: 0 (weed kill ratio 5% or less (practically no effect))
- L (redroot pigweed) weedkilling efficacy grade [9]: 2 (weed kill ratio 20% or more, less than 40%)
- C (oval-leafed pondweed) weedkilling efficacy grade [10]: 5 (weed kill ratio 90% or more, (practically complete withering))
- K (Indian mallow) weedkilling efficacy grade [11]: 0 (weed kill ratio 5% or less (practically no effect))
- P (birds-eye speedwell) weedkilling efficacy grade [12]: 4 (weed kill ratio 70% or more, less than 90%)
- P (birds-eye speedwell) weedkilling efficacy grade [13]: 0 (weed kill ratio 5% or less (practically no effect))
- e (wheat) effect on crop grade [14]: 0 (weed kill ratio 5% or less (practically no effect))
- M (fig-leafed goosefoot) weedkilling efficacy grade [15]: 0 (weed kill ratio 5% or less (practically no effect))
- D (crabgrass) weedkilling efficacy grade [16]: 2 (weed kill ratio 20% or more, less than 40%)
- L (redroot pigweed) weedkilling efficacy grade [17]: 0 (weed kill ratio 5% or less (practically no effect))
- F (barnyard grass) weedkilling efficacy grade [18]: 1 (weed kill ratio 5% or more, less than 20%)
- a (transplanted rice) effect on crop grade [19]: 0 (weed kill ratio 5% or less (practically no effect))
- M (fig-leafed goosefoot) weedkilling efficacy grade [20]: 3 (weed kill ratio 40% or more, less than 70%)
- G (wild oat) weedkilling efficacy grade [21]: 0 (weed kill ratio 5% or less (practically no effect))
- d (soybean) effect on crop grade [22]: 0 (weed kill ratio 5% or less (practically no effect))
- E (green foxtail) weedkilling efficacy grade [23]: 3 (weed kill ratio 40% or more, less than 70%)
- O (catchweed) weedkilling efficacy grade [24]: 0 (weed kill ratio 5% or less (practically no effect))
- O (catchweed) weedkilling efficacy grade [25]: 4 (weed kill ratio 70% or more, less than 90%)
- G (wild oat) weedkilling efficacy grade [26]: 0 (weed kill ratio 5% or less (practically no effect))
- B (bulrush) weedkilling efficacy grade [27]: 5 (weed kill ratio 90% or more, (practically complete withering))
- b (directly sown rice) effect on crop grade [28]: 0 (weed kill ratio 5% or less (practically no effect))
- K (Indian mallow) weedkilling efficacy grade [29]: 3 (weed kill ratio 40% or more, less than 70%)
- H (black-grass) weedkilling efficacy grade [30]: 2 (weed kill ratio 20% or more, less than 40%)
- d (soybean) effect on crop grade [31]: 0 (weed kill ratio 5% or less (practically no effect))
- A (barnyard grass) weedkilling efficacy grade [32]: 5 (weed kill ratio 90% or more, (practically complete withering))
- I (Italian ryegrass) weedkilling efficacy grade [33]: 1 (weed kill ratio 5% or more, less than 20%)
- D (crabgrass) weedkilling efficacy grade [34]: 3 (weed kill ratio 40% or more, less than 70%)
- N (chickweed) weedkilling efficacy grade [35]: 3 (weed kill ratio 40% or more, less than 70%)
- b (directly sown rice) effect on crop grade [36]: 0 (weed kill ratio 5% or less (practically no effect))
- f (beet) effect on crop grade [37]: 0 (weed kill ratio 5% or less (practically no effect))
- J (common wind-grass) weedkilling efficacy grade [38]: 5 (weed kill ratio 90% or more, (practically complete withering))
- g (rapeseed) effect on crop grade [39]: 3 (weed kill ratio 40% or more, less than 70%)
- E (green foxtail) weedkilling efficacy grade [40]: 4 (weed kill ratio 70% or more, less than 90%)
- F (barnyard grass) weedkilling efficacy grade [41]: 2 (weed kill ratio 20% or more, less than 40%)
- g (rapeseed) effect on crop grade [42]: 0 (weed kill ratio 5% or less (practically no effect))
- c (corn) effect on crop grade [43]: 1 (weed kill ratio 5% or more, less than 20%)
- c (corn) effect on crop grade [44]: 0 (weed kill ratio 5% or less (practically no effect))
